Where two headings read alike, the source gives them in different places. Peptide text beside a SMILES is read from it.
Assays:
[1] = target: T1, ARHGAP12Set-1 (K28S, R30N, F62G, Y63W) SH3 domain (Homo sapiens, UniProt Q8IWW6, F62G/K28S/R30N/Y63W); assay: Fluorescence polarization, SH3 domain mutant; format: binding; conditions: ARHGAP12 Set-1 mutant; FP, 0.2 µM fluorescent peptide, quadratic fit
T1 construct: 12-74; GST (N); made in house; host or cells: Escherichia coli (CodonPlus, Rosetta, BL21(DE3)), pGEX4-T1
Description: (§1) The interaction between fluorescein-labeled proline-rich peptides (0.2 µM) and increasing concentrations of SH3 domains (ranging from 0 to 200 µM) was measured in a buffer (containing 30 mM Tris/HCl (pH 7.5), 5 mM MgCl2, and 3 mM DTT at 25 °C) in a total volume of 200 µL using a Fluoromax 4 fluorimeter in polarization mode and a quartz glass fluorescence cuvette (Hellma Ultra-Micro Cuvette 105.250-QS, Thermo Fisher Scientific, Waltham, MA USA). Excitation was performed at 470 nm and emission was measured at 560 nm. Dissociation constants (Kd) were determined by fitting the concentration-dependent binding curve to a quadratic ligand binding equation.
(§2) To better understand the role of the residues of SH3 domains in selective binding to PRPs, we have generated a multiple sequence alignment (Figure S7). It highlights the conserved and variable residues that are likely to be critical for the selectivity and affinity of the SH3 domain–PRM interactions. […] Two different sets of mutations were generated by substituting a combination of amino acids from ARHGAP12 and NCK1-3 for ABL2 and BIN1 and vice versa (Figure 3A; Table S1).
(§3) Figure S8. Mutational analysis of the SH3-fluorescent PRPs interactions using fluorescence polarization.
(§4) Fluorescent peptides (0.2 µM) were titrated with increasing concentrations of the corresponding SH3 domain mutants (see Figure 3A and Table S1). The x-axis represents SH3 domain concentrations as GST fusion proteins in µM, while the y-axis represents fluorescence polarization. The equilibrium dissociation constants (Kd) for the respective measurements were determined by fitting the titration curves to a quadratic ligand-binding equation […]
(§5) (solid lines). Error bars are derived from the fitting errors.
(§6) (1 picture or pasted object on this page, not shown here)

[2] = target: T2, NCK1-3Set-2 (N225E, W229G, K244E) SH3 domain (Homo sapiens, UniProt P16333, K244E/N225E/W229G); assay: Fluorescence polarization, SH3 domain mutant; format: binding; conditions: NCK1-3 Set-2 mutant, FP, 0.2 µM fluorescent peptide, quadratic fit
T2 construct: 190–252; GST (N); made in house; host or cells: Escherichia coli (CodonPlus, Rosetta, BL21(DE3)), pGEX4-T1
Description: as §1, §2, §3, §4, §5, §6

T1 sequence (Q8IWW6 12-74 K28S/R30N/F62G/Y63W): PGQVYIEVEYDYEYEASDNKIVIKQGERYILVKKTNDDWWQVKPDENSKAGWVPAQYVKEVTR

Row | Kd [1] | Kd [2] | Kd ([2]; read-out: Kd) | SMILES
1 | 23 µM |  |  | C[C@H](N)C(=O)N[C@@H](Cc1ccccc1)C(=O)N[C@@H](Cc1ccccc1)C(=O)N1CCC[C@H]1C(=O)N[C@@H](CC(N)=O)C(=O)N[C@@H](CO)C(=O)N1CCC[C@H]1C(=O)N[C@@H](CO)C(=O)N1CCC[C@H]1C(=O)N[C@@H](Cc1ccccc1)C(=O)N[C@H](C(=O)N1CCC[C@H]1C(=O)N1CCC[C@H]1C(=O)N1CCC[C@H]1C(=O)N1CCC[C@H]1C(=O)N[C@@H](CCC(N)=O)C(=O)N[C@H](C(=O)N1CCC[C@H]1C(=O)N[C@@H](CO)C(=O)N1CCC[C@H]1C(=O)N[C@@H](Cc1c[nH]cn1)C(=O)NCC(=O)N[C@H](C(=O)O)[C@@H](C)O)[C@@H](C)O)[C@@H](C)O [Peptide P7] (H-AFFPNSPSPFTPPPPQTPSPHGT-OH)
2 |  | did not differ from the NCK1-3^wt | 0.8 µM | CC[C@H](C)[C@H](N)C(=O)N[C@@H](C)C(=O)NCC(=O)N1CCC[C@H]1C(=O)N1CCC[C@H]1C(=O)N[C@H](C(=O)N1CCC[C@H]1C(=O)N1CCC[C@H]1C(=O)N[C@@H](CCCNC(=N)N)C(=O)N[C@@H](CCC(N)=O)C(=O)N[C@@H](CO)C(=O)O)C(C)C [Peptide P9] (H-IAGPPVPPRQS-OH)

From publication PMC10814857, “Functional Classification and Interaction Selectivity Landscape of the Human SH3 Domain Superfamily” (Cells, 2024)
